From patent US5668147A, “Quinolinecarboxylic acid derivatives and salts thereof” (Kaken Pharmaceutical Co., Ltd., priority 1993, dated 1997)

Tests used:
E. coli JC3 = test: Antibacterial activity, MIC by agar plate dilution assay; assay type: cell-based; design: unit not given here
Protocol: (§1) Antibacterial activities of the compounds of the present invention were measured as the minimum inhibitory concentration (MIC) by the agar plate dilution assay method according to the standard method of Japan Society of Chemotherapy. Ofloxacin (OFLX) was used as the control compound.

E. faecalis 1373 = test: as above; assay type: cell-based; design: unit not given here
Protocol: as §1

S. aureus JS1 (MRSA) = test: as above; assay type: cell-based; design: unit not given here
Protocol: as §1

S. aureus KP90-3 (MRSA) = test: as above; assay type: cell-based; design: unit not given here
Protocol: as §1

S. aureus Smith = test: as above; assay type: cell-based; design: unit not given here
Protocol: as §1

S. pyogenes Cook = test: as above; assay type: cell-based; design: unit not given here
Protocol: as §1

[1] = Acute toxicity test, oral, ICR mice; settings: mouse, in vivo, 6-week-old ICR mice, orally, suspended in 0.5% methylcellulose
Protocol: Acute toxicity test was performed using 6-week-old ICR mice. The compound of Example 21a was used as the tested compound. The compound was suspended in a 0.5% solution of methylcellulose, and the suspension was orally administered. The value of LD50 was at least 4000 mg/kg.

[2] = test system: peripheral blood erythrocytes; test: Mutagenicity, micronucleus assay in mice; assay type: in vivo; settings: 8-week-old ICR mice; abdominally administered in olive oil; dose 200 mg/kg; before and 24, 48 and 72 hours after
Protocol: Micronucleus assay was performed using 8-week-old ICR mice to confirm whether the compounds have mutagenicity. The compound of Example 21a was suspended in olive oil, and the suspension was abdominally administered to mice. The peripheral blood was obtained before and 24, 48 and 72 hours after the administration, and smeared specimens of the peripheral blood were prepared by acridine orange dying. In each specimen, 1000 erythrocytes were observed and frequency of occurrence of micronucleus was recorded. The frequency was not changed even in dose 200 mg/kg.

| SMILES | Minimum Inhibitory Concentration (MIC) (E. coli JC3) | Minimum Inhibitory Concentration (MIC) (E. faecalis 1373) | Minimum Inhibitory Concentration (MIC) (S. aureus JS1 (MRSA)) | Minimum Inhibitory Concentration (MIC) (S. aureus KP90-3 (MRSA)) | Minimum Inhibitory Concentration (MIC) (S. aureus Smith) | Minimum Inhibitory Concentration (MIC) (S. pyogenes Cook) | LD50 [1] | frequency of occurrence of micronucleus [2] |
| --- | --- | --- | --- | --- | --- | --- | --- | --- |
| O=C(O)c1cn(C2CC2)c2c(F)c(N3C[C@@H](CO)[C@H](C(F)(F)F)C3)c(F)cc2c1=O (relative stereo) [Example 6a, 1-Cyclopropyl-6,8-difluoro-1,4-dihydro-7-(trans-3-hydroxymethyl-4-trifluoromethyl-1-pyrrolidinyl)-4-oxoquinoline-3-carboxylic acid] | 0.39 | 0.39 | 0.05 | 3.13 | 0.025 | 0.39 | – | – |
| COc1c(N2C[C@@H](CO)[C@H](C(F)(F)F)C2)c(F)cc2c(=O)c(C(=O)O)cn(C3CC3)c12 (relative stereo) [Example 9a, 1-Cyclopropyl-6-fluoro-1,4-dihydro-7-(trans-3-hydroxymethyl-4-trifluoromethyl-1-pyrrolidinyl)-8-methoxy-4-oxoquinoline-3-carboxylic acid] | 0.39 | 0.2 | 0.013 | 0.78 | ≤ 0.006 | 0.2 | – | – |
| COc1c(N2C[C@@H](CN)[C@H](C(F)(F)F)C2)c(F)cc2c(=O)c(C(=O)O)cn(C3CC3)c12 (relative stereo) [Example 21a] | 0.1 | 0.1 | 0.013 | 0.78 | 0.013 | 0.025 | ≥ 4000 mg/kg | not changed |
| NC[C@@H]1CN(c2c(F)cc3c(=O)c(C(=O)O)cn(C4CC4)c3c2Cl)C[C@H]1C(F)(F)F (relative stereo) [Example 15a] | 0.05 | 0.1 | 0.013 | 0.39 | ≤ 0.006 | 0.013 | – | – |
| CC1COc2c(N3CCN(C)CC3)c(F)cc3c(=O)c(C(=O)O)cn1c23 (centres unmarked) [OFLX, Ofloxacin, reference compound] | 0.1 | 1.56 | 0.39 | 25 | 0.2 | 0.78 | – | – |
| Cl.NC[C@@H]1CN(c2c(F)cc3c(=O)c(C(=O)O)cn(C4CC4)c3c2F)C[C@H]1C(F)(F)F (relative stereo) [Example 12a, 7-(Trans-3-aminomethyl-4-trifluoromethyl-1-pyrrolidinyl)-1-cyclopropyl-6,8-difluoro-1,4-dihydro-4-oxoquinoline-3-carboxylic acid hydrochloride] | 0.05 | 0.1 | 0.025 | 0.78 | 0.013 | 0.025 | – | – |
| Nc1c(F)c(N2C[C@@H](CO)[C@H](C(F)(F)F)C2)c(F)c2c1c(=O)c(C(=O)O)cn2C1CC1 (relative stereo) [Example 8a] | 0.2 | 0.2 | 0.013 | 3.13 | ≤ 0.006 | 0.39 | – | – |
| N[C@@H]1CN(c2nc3c(cc2F)c(=O)c(C(=O)O)cn3-c2ccc(F)cc2F)C[C@H]1C(F)(F)F (relative stereo) [Example 35a] | 0.78 | 0.78 | 0.1 | 25 | 0.05 | 0.39 | – | – |
| Nc1c(F)c(N2C[C@@H](N)[C@H](C(F)(F)F)C2)c(F)c2c1c(=O)c(C(=O)O)cn2C1CC1 (relative stereo) [Example 29a] | 0.05 | 0.39 | 0.05 | 25 | 0.025 | 0.2 | – | – |
| N[C@@H]1CN(c2c(F)cc3c(=O)c(C(=O)O)cn(C4CC4)c3c2F)C[C@H]1C(F)(F)F (relative stereo) [Example 23a] | 0.2 | 0.78 | 0.2 | 12.5 | 0.1 | 0.78 | – | – |
| COc1c(N2C[C@@H](N)[C@H](C(F)(F)F)C2)c(F)cc2c(=O)c(C(=O)O)cn(C3CC3)c12 (relative stereo) [Example 31a] | 0.39 | 0.39 | 0.05 | 3.13 | 0.05 | 0.39 | – | – |
| O=C(O)c1cn(C2CC2)c2c(Cl)c(N3C[C@@H](CO)[C@H](C(F)(F)F)C3)c(F)cc2c1=O (relative stereo) [Example 7a] | 0.39 | 0.2 | 0.013 | 0.39 | ≤ 0.006 | 0.1 | – | – |
| N[C@@H]1CN(c2c(F)cc3c(=O)c(C(=O)O)cn(C4CC4)c3c2Cl)C[C@H]1C(F)(F)F (relative stereo) [Example 26a] | 0.2 | 0.39 | 0.05 | 3.13 | 0.05 | 0.39 | – | – |
| NC[C@@H]1CN(c2c(F)c(N)c3c(=O)c(C(=O)O)cn(C4CC4)c3c2F)C[C@H]1C(F)(F)F (relative stereo) [Example 18a] | 0.025 | 0.05 | ≤ 0.006 | 1.56 | ≤ 0.006 | 0.013 | – | – |
